# “Also recorded” adds a separate entry of the source.
# Experiments:
# [1] = tested on: B. cereus ATCC 9634; experiment: antimicrobial spectrum, broth dilution method; format: cell-based; settings: Bacillus cereus, ATCC9634; broth dilution; read-out: Minimum Inhibitory Concentration
# Description: (§1) 1. The antimicrobial spectrum of aclacinomycins A and B was determined by the broth dilution method as follows: […]
# [2] = tested on: B. megaterium; experiment: antimicrobial spectrum, broth dilution method; format: cell-based; settings: Priestia megaterium; broth dilution; read-out: Minimum Inhibitory Concentration
# Description: as §1
# [3] = tested on: Bacillus subtilis ATCC 6633; experiment: antimicrobial spectrum, broth dilution method; format: cell-based; settings: ATCC6633, broth dilution, read-out: Minimum Inhibitory Concentration
# Description: as §1
# [4] = tested on: Can tropicalis IAM 4924; experiment: antimicrobial spectrum, broth dilution method; format: cell-based; settings: broth dilution; read-out: Minimum Inhibitory Concentration
# Description: as §1
# [5] = tested on: Can. albicans IAM 4905; experiment: antimicrobial spectrum, broth dilution method; format: cell-based; settings: Candida albicans, IAM4905; broth dilution; read-out: Minimum Inhibitory Concentration
# Description: as §1
# [6] = tested on: Cory. bovis 1810; experiment: antimicrobial spectrum, broth dilution method; format: cell-based; settings: Corynebacterium bovis, 1810; broth dilution; read-out: Minimum Inhibitory Concentration
# Description: as §1
# [7] = tested on: Diplo. pneumoniae Type 1; experiment: antimicrobial spectrum, broth dilution method; format: cell-based; settings: Streptococcus pneumoniae, TYPE1; broth dilution; read-out: Minimum Inhibitory Concentration
# Description: as §1
# [8] = tested on: Diplo. pneumoniae Type 3; experiment: antimicrobial spectrum, broth dilution method; format: cell-based; settings: Streptococcus pneumoniae, TYPE3; broth dilution; read-out: Minimum Inhibitory Concentration
# Description: as §1
# [9] = tested on: Kl. pneumoniae ATCC 10031; experiment: antimicrobial spectrum, broth dilution method; format: cell-based; settings: Klebsiella pneumoniae, ATCC10031; broth dilution; read-out: Minimum Inhibitory Concentration
# Description: as §1
# [10] = tested on: Mic. flavus; experiment: antimicrobial spectrum, broth dilution method; format: cell-based; settings: Micrococcus flavus; broth dilution; read-out: Minimum Inhibitory Concentration
# Description: as §1
# [11] = tested on: Mycobact. smegmatis ATCC 607; experiment: antimicrobial spectrum, broth dilution method; format: cell-based; settings: broth dilution; read-out: Minimum Inhibitory Concentration
# Description: as §1
# [12] = tested on: Ps. aeruginosa A20229; experiment: antimicrobial spectrum, broth dilution method; format: cell-based; settings: Pseudomonas aeruginosa, A20229; broth dilution; read-out: Minimum Inhibitory Concentration
# Description: as §1
# [13] = tested on: Sar. lutea ATCC 9341; experiment: antimicrobial spectrum, broth dilution method; format: cell-based; settings: Micrococcus luteus, ATCC9341; broth dilution; read-out: Minimum Inhibitory Concentration
# Description: as §1
# [14] = tested on: St. pyogenes NY 5; experiment: antimicrobial spectrum, broth dilution method; format: cell-based; settings: Streptococcus pyogenes, NY5; broth dilution; read-out: Minimum Inhibitory Concentration
# Description: as §1
# [15] = tested on: Staph. aureus FDA 209P; experiment: antimicrobial spectrum, broth dilution method; format: cell-based; settings: Staphylococcus aureus, FDA209P; broth dilution; read-out: Minimum Inhibitory Concentration
# Description: as §1
# [16] = tested on: Staph. aureus Smith; experiment: antimicrobial spectrum, broth dilution method; format: cell-based; settings: Staphylococcus aureus; broth dilution; read-out: Minimum Inhibitory Concentration
# Description: as §1
# [17] = tested on: Strept. faecalis; experiment: antimicrobial spectrum, broth dilution method; format: cell-based; settings: Enterococcus faecalis; broth dilution; read-out: Minimum Inhibitory Concentration
# Description: as §1
# [18] = tested on: Gram-positive bacteria and yeasts; experiment: antimicrobial activity (summary in words); format: cell-based
# [19] = tested on: P388 cells or L1210 cells; experiment: survival of BDF1 mice inoculated with P388 or L1210 cells; format: in vivo; settings: for T/C / 30 day survivors / Mean survival time: daily for 10 days; for 30 day survivors: control 0/8; for Mean survival time: control 10.0
# Description: 2. […] For example, when BDF1 mice weighing 18 to 22 grams are inoculated with 1 × 10^6 cells of P388 cells or 5 × 10^5 cells of L1210 cells intraperitoneally and aclacinomycin A and B and aclacinomycin A-DNA complex are administered intraperitoneally once daily for 10 days consecutively 24 hours after the inoculation, the survival time of the mice is prolonged remarkably at the rate of over 150% in a dosage range of 0.5 to 5 mg./kg. of body weight per day compared with control mice receiving no antibiotic, as shown in the following table: […]
# [20] = acute toxicity, single injection; format: in vivo, Mouse; settings: mouse, in vivo, single injection
# [21] = tested on: Mouse; experiment: acute toxicity, single injection; format: in vivo; settings: mice
# [22] = acute toxicity, single injection; format: in vivo, Rat; settings: rat, in vivo, single injection
# [23] = tested on: Rat; experiment: acute toxicity, single injection; format: in vivo; settings: rats
# [24] = tested on: rabbits; experiment: lethal dose (LD50) on rabbits; format: in vivo
# [25] = tested on: hamsters; experiment: acute cardiac alterations in the electrocardiograms of hamsters / cardiotoxicity; settings: hamster, in vivo
# [26] = tested on: L1210 cells; experiment: cells; format: cell-based, mice; settings: 3 days
# [27] = tested on: DNA synthesis (L1210 cells); experiment: cells; format: cell-based, mice; settings: Mus musculus, L1210, 1 h; 14C-precursor incorporation, 37° C., 60 min.; read-out: ID50, DNA synthesis
# [28] = tested on: RNA synthesis (L1210 cells); experiment: cells; format: cell-based, mice
# [29] = tested on: Vaccinia virus; experiment: microbe, parasite or virus in culture; format: cell-based
# [30] = tested on: nucleic acid biosynthesis (L1210 cells); format: cell-based, mice; settings: below 1 mcg./ml. in the medium, 60 min.
# [31] = tested on: lymphoma 6C3HED; experiment: lymphoma 6C3HED in mice (summary in words); format: in vivo
# [32] = tested on: leukemia P388; experiment: leukemia P388 in mice (summary in words); format: in vivo
# [33] = tested on: various animal tumors; experiment: antitumor activity in animal tumors (summary in words); format: in vivo; settings: experimental animal tumors
# [34] = tested on: cultured mammalian tumor cells; experiment: growth of tumor cells in culture (summary in words); format: cell-based
structure (smiles),measurement,setting,value
CCC1(O)CC(OC2CC(N(C)C)C(OC3CC(O)C(OC4CCC(=O)C(C)O4)C(C)O3)C(C)O2)c2c(cc3c(c2O)C(=O)c2c(O)cccc2C3=O)C1C(=O)OC (centres unmarked) [Aclacinomycin A],MIC,[1],< 0.2 µg/mL
same,MIC,[2],< 0.63 µg/mL
same,MIC,[3],< 0.2 µg/mL
same,MIC,[4],20 µg/mL
same,MIC,[5],10 µg/mL
same,MIC,[6],< 0.2 µg/mL
same,MIC,[7],0.63 µg/mL
same,MIC,[8],0.63 µg/mL
same,MIC,[9],> 100 µg/mL
same,MIC,[10],< 0.2 µg/mL
same,MIC,[11],2.5 µg/mL
same,MIC,[12],> 100 µg/mL
same,MIC,[13],< 0.2 µg/mL
same,MIC,[14],1.25 µg/mL
same,MIC,[15],< 0.63 µg/mL
same,MIC,[16],< 0.2 µg/mL
same,MIC,[17],2.5 µg/mL
same,antimicrobial activity,[18],effective in preventing the growth; also recorded: strong antimicrobial activity
same,T/C,[19]; 0.5 mg./kg./day i.p.,230%
same,30 day survivors,[19]; 0.5 mg./kg./day i.p.,2/4
same,Mean survival time,[19]; 0.5 mg./kg./day i.p.,23.0 days
same,T/C,[19]; 1.0 mg./kg./day i.p.,280%
same,30 day survivors,[19]; 1.0 mg./kg./day i.p.,3/4
same,Mean survival time,[19]; 1.0 mg./kg./day i.p.,28.0 days
same,T/C,[19]; 2.0 mg./kg./day i.p.,300%
same,30 day survivors,[19]; 2.0 mg./kg./day i.p.,4/4
same,Mean survival time,[19]; 2.0 mg./kg./day i.p.,30.0 days
same,T/C,[19]; 4.0 mg./kg./day i.p.,215%
same,30 day survivors,[19]; 4.0 mg./kg./day i.p.,1/4
same,Mean survival time,[19]; 4.0 mg./kg./day i.p.,21.5 days
same,"survival time prolonged, rate compared with control mice","[19]; dosage range 0.5 to 5 mg./kg. per day, i.p. daily for 10 days",over 150%
same,LD50,"[20]; ip, intraperitoneal",22.6 mg/kg
same,LD50,[20]; intravenous,33.7 mg/kg
same,"lethal dose (LD50), in words",[21],high lethal dose
same,LD50,"[22]; ip, intraperitoneal",25 to 50 mg/kg
same,LD50,[22]; intravenous,32.5 mg/kg
same,"lethal dose (LD50), in words",[23],high lethal dose
same,"lethal dose (LD50), in words",[24],high lethal dose
same,cardiotoxicity on hamsters,[25],extremely low cardiotoxicity
same,IC50,"[26]; Mus musculus, L1210, 72 h, 37° C., read-out: ID50, growth",0.12 µg/mL
same,inhibition of cell growth,[26]; below 1 mcg./ml. in the medium,over 50%
same,IC50,[27],1.1 µg/mL
same,inhibition of RNA synthesis (in words),[28],specific inhibition on RNA synthesis
same,IC50,"[28]; Mus musculus, L1210, 1 h, 14C-precursor incorporation, 37° C., 60 min., read-out: ID50, RNA synthesis",0.1 µg/mL
same,inhibition of growth of vaccinia virus (in words),[29]; HeLa cells,effective in inhibiting the growth
same,IC50,"[29]; Orthopoxvirus vaccinia, HeLa, read-out: ID50, Vaccinia virus",< 10 µg/mL
same,inhibition of nucleic acid biosynthesis,[30],over 50%
same,inhibition of growth of lymphoma 6C3HED,[31],effective in inhibiting the growth
same,"life prolongation, mice inoculated with lymphoma 6C3HED",[31],markedly prolong the lives
same,inhibition of growth of leukemia P388,[32],effective in inhibiting the growth
same,"life prolongation, mice inoculated with leukemia P388",[32],markedly prolong the lives
same,antitumor activity (in words),[33],marked inhibitory effects; also recorded: potent antitumor activity
same,inhibition of growth of tumor cells in culture (in words),[34],remarkable inhibitory effect

# Source: patent US4071411A, “Antitumor antibiotics aclacinomycins A and B [RD-9187A]” (priority 1974, dated 1978)
